One experiment deals with HDAC1 (Homo sapiens, UniProt Q13547). Description: HDAC catalytic activity, fluorogenic substrate. The class given is biochemical. The conditions noted are these: 10-dose, 3-fold serial dilution starting at 100 μM, duplicates. The procedure: (§1) The compound (racemate) was resuspended in 100 mM DMSO and tested in a 10-dose IC50 with 3-fold serial dilution starting at 100 μM against HDACs 1-9, and 11. As reference compounds, Trichostatin A (TSA) and TMP269 were tested in a 10-dose IC50 with 3-fold serial dilution starting at 10 μM or 1 μM.
(§2) 10 μM Fluorogenic peptide from p53 residues 379-382 (RHKK(Ac)AMC) was used for the substrate for HDAC 1, 2, 3, and 6, 50 μM Fluorogenic HDAC Class2a Substrate (Trifluoroacetyl Lysine) was used for the substrate for HDAC 4, 5, 7, 9, and 11, 100 μM Fluorogenic peptide from p53 residues 379-382 (RHK(Ac)K(Ac)AMC) was used for the substrate for HDAC8.
(§3) IC50 values were calculated using the GraphPad Prism 4 program based on a sigmoidal dose-response equation and the blank (DMSO) value concentration was entered as 1.00E-12 M for curve fitting.

The target of another experiment is T1, HDAC8 (Homo sapiens, UniProt Q9BY41).
T1 sequence (Q9BY41 1-377): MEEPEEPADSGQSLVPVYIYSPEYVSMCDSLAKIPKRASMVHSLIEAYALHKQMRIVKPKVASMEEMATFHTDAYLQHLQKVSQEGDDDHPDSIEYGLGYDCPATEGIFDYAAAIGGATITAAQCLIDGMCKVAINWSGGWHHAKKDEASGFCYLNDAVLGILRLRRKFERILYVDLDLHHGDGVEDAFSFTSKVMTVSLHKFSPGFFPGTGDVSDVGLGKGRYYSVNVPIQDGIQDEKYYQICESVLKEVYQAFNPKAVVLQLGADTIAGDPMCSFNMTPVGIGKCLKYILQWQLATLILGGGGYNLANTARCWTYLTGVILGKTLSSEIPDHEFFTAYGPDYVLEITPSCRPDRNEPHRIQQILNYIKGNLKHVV
Nature of the experiment: HDAC catalytic activity, fluorogenic substrate. It is filed as biochemical. The conditions noted are these: 10-dose, 3-fold serial dilution starting at 100 μM, duplicates. As to the method: as §1, §2, §3

For a further experiment, the target named is HDAC9 (Homo sapiens, UniProt Q9UKV0). Nature of the experiment: HDAC catalytic activity, fluorogenic substrate. The class given is biochemical. As to conditions: 10-dose, 3-fold serial dilution starting at 100 μM, duplicates. The procedure:
as §1, §2, §3

For experiment [1], the system named is APP/PS1 mice sensory cerebral cortex. Nature of the experiment: TC potency and GABA/AMPA ratio in sensory cortex of Alzheimer's animal model. It is filed as in vivo. The procedure: For intravenous injection, the tail vein injection method was used. […] In the drug injection test, the compound was administered once a day for about 11 to 13 days. 5 mice were used for the compound administration group and the control group, respectively.
For TC or hippocampus slice preparation. 9 to 10 weeks-old male C57BL/6J mice were anesthetized with isoflurane. Then, the brain was rapidly cooled via transcardial perfusion with ice-cold sucrose-artificial cerebrospinal fluid (aCSF). The brain was removed and placed in ice-cold sucrose aCSF. Paracoronal slices were prepared at an angle of 50° relative to the midline on a ramp at an angle of 10°. […]
For the minimal stimulation protocol (Potency), VB thalamic stimulation intensity was adjusted to find the lowest intensity that elicited a mixture of synaptic responses and failures. Failure rate was calculated as the number of failures/total number of trials. Potency was calculated as the mean EPSC peak amplitude excluding failures (see Chittajallu & Isaac, 2010, Emergence of cortical inhibition by coordinated sensory-driven plasticity at distinct synaptic loci, DOI: 10.1038/nn.2639; see Isaac et al., 1997, Silent Synapses during Development of Thalamocortical Inputs, https://doi.org/10.1016/S08966273((0)80267-6; and see Stevens & Wang, 1995, Facilitation and depression at single central synapses, DOI: 10.1016/08966273(95)90223-6). […]

The source of these data is patent US20250188032A1, “NITROGEN-CONTAINING HETEROCYCLIC COMPOUNDS AND USES THEREOF” (BNH RESEARCH CO., LTD., priority 2022, published 2025).

Sequence of HDAC1 (Q13547 whole entry, the tested form may be a part): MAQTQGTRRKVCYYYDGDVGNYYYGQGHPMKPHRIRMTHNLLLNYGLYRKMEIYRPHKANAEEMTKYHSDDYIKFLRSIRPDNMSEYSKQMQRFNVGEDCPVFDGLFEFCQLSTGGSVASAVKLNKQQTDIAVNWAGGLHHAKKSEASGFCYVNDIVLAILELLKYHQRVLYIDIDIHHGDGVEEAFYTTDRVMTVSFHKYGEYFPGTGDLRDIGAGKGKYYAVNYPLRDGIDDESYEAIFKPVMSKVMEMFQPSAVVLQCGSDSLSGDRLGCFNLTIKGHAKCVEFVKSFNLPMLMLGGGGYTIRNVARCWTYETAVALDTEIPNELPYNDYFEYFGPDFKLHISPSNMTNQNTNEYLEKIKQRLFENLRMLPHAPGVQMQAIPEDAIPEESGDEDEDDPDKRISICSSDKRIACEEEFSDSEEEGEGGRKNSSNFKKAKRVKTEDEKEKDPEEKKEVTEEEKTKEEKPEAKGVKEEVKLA
Sequence of HDAC9 (Q9UKV0 whole entry): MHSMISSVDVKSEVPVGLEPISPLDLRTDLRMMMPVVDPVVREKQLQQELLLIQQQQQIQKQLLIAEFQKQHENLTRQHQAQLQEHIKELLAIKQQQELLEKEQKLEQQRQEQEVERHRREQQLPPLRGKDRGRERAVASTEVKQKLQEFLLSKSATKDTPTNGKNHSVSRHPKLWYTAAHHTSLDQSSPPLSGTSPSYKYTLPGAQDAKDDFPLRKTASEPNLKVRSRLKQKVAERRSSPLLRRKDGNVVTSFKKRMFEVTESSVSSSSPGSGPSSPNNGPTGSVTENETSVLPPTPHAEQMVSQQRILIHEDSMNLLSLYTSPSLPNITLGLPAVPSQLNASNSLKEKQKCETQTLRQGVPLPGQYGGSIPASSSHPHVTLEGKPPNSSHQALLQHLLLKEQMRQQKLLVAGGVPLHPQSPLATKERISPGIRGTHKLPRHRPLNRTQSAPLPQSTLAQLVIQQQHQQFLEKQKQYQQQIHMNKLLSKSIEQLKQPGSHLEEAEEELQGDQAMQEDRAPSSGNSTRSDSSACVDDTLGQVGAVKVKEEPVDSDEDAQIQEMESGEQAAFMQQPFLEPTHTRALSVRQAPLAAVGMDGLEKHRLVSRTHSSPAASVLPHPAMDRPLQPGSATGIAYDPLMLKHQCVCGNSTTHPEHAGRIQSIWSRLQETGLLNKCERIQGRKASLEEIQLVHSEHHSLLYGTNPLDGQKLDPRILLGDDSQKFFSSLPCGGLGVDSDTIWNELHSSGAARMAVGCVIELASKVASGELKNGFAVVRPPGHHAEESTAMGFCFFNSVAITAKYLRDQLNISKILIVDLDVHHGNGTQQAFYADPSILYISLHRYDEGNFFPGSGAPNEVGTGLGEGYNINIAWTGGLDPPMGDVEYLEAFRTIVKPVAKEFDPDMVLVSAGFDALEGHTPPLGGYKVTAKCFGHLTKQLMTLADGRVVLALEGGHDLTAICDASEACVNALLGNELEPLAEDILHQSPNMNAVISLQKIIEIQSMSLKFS

With `CC1CCC(C(=O)O)CN1C(=O)Cc1ccc(F)cc1Cl` (racemic) [BnH12001, 1-(2-(2-chloro-4-fluorophenyl)acetyl)-6-methylpiperidine-3-carboxylic acid], on HDAC1, the “Inhibitory effect on HDAC1 catalytic activity” value is on record as “did not show any inhibitory effect”. The “Inhibitory effect on HDAC8 catalytic activity” value at HDAC8 is “did not show any inhibitory effect”. Moreover, on HDAC9, the “Inhibitory effect on HDAC9 catalytic activity” value is reported as “did not show any inhibitory effect”.
As to `C[C@@H]1CC[C@H](C(=O)O)CN1C(=O)Cc1ccc(F)cc1Cl` [BnH12001 enantiomer (3S,6R, 98%<), (3S,6R)-1-(2-(2-chloro-4-fluorophenyl)acetyl)-6-methylpiperidine-3-carboxylic acid], in experiment [1], the “Balance of excitation/inhibition (GABA/AMPA ratio)” value is “maintaining the balance of excitation/inhibition” and the “Excitatory TC synaptic potency (TC potency)” value is listed as “increased the excitatory TC synaptic potency”.
